Patent US8129412B2, “Hydantoin derivatives useful as metalloproteinase inhibitors” (AstraZeneca AB, priority 2004, dated 2012)

molecular target: T1, Recombinant human proMMP13 (collagenase 3) (Homo sapiens, UniProt P45452); test: Collagenase 3 (MMP13) enzyme inhibition assay with fluorogenic peptide substrate; assay type: biochemical; details: APMA-activated MMP13, 4-5 hours at 35° C., pH 7.5, fluorescence λex 328 nm / λem 393 nm
T1 construct: made in house
Description: Collagenase 3 (MMP13) inhibitory activity may be assessed, for example, using the procedure set out below:—
Activity is determined by measuring the fluorescence at λex 328 nm and λem 393 nm.

Compared with `CC[C@]1(CS(=O)(=O)N2CCC(Oc3ccc(OCC(F)(F)C(F)F)cc3)CC2)NC(=O)NC1=O` [Example 10, (5S)-5-ethyl-5-[({4-[4-(2,2,3,3-tetrafluoropropoxy)phenoxy]-piperidin-1-yl}sulphonyl)methyl]imidazolidine-2,4-dione], `CC[C@]1(CS(=O)(=O)N2CCC(Oc3ccc(OCC(F)(F)F)cc3)CC2)NC(=O)NC1=O` [Example 2, (5S)-5-ethyl-5-[({4-[4-(2,2,2-trifluoroethoxy)phenoxy]piperidin-1-yl}sulfonyl)methyl]imidazolidine-2,4-dione] is 12-fold higher in IC50: 0.7 nM for the first, 8.4 nM for the second.

Going from `CCC1(CS(=O)(=O)N2CCC(Oc3ccc(OC(F)(F)C(F)F)cc3)CC2)NC(=O)NC1=O` (stereo not drawn) [Example 4, 5S-ethyl-5-[({4-[4-(1,1,2,2-tetrafluoroethoxy)phenoxy]piperidin-yl}sulfonyl)methyl]imidazolidine-2,4-dione] to `CC[C@]1(CS(=O)(=O)N2CCC(Oc3ccc(OC(F)(F)C(F)(F)F)cc3)CC2)NC(=O)NC1=O` [Example 6, (5S)-5-ethyl-5-[({4-[4-(pentafluoroethoxy)phenoxy]piperidin-1-yl}sulfonyl)methyl]imidazolidine-2,4-dione], the IC50 rises from 4.9 nM to 13 nM (2.7-fold). The first is the more potent here.

First: CC[C@]1(CS(=O)(=O)N2CCC(Oc3ccc(OCC(F)(F)C(F)(F)F)cc3)CC2)NC(=O)NC1=O [Example 12, (5S)-5-ethyl-5-[({4-[4-(2,2,3,3,3-pentafluoropropoxy)phenoxy]-piperidin-1-yl}sulphonyl)methyl]imidazolidine-2,4-dione]
Second: CCC1(CS(=O)(=O)N2CCC(Oc3ccc(OCCC(F)(F)F)cc3)CC2)NC(=O)NC1=O (stereo not drawn) [Example 8]
The IC50 of the first is 2.9-fold lower: 1.9 nM for the first, 5.5 nM for the second. The first is the more potent here.
